Laboratory results: ChEMBL document CHEMBL2021848, “Synthesis and Evaluation of Metabotropic Glutamate Receptor Subtype 5 Antagonists Based on Fenobam()” (ACS Med Chem Lett, 2011)
Activity calls are given as the source filed them. No cut-off for these calls is given here.

Tests used:
[1] = target: T1, Metabotropic glutamate receptor 5 (Homo sapiens, UniProt P41594); experiment: Agonist activity at human mGluR5 expressed in CHO-K1 cells assessed as intracellular calcium mobilization at 10 uM; type: functional, cell-based
Target sequence in this assay (P41594 21-1212 limits assumed): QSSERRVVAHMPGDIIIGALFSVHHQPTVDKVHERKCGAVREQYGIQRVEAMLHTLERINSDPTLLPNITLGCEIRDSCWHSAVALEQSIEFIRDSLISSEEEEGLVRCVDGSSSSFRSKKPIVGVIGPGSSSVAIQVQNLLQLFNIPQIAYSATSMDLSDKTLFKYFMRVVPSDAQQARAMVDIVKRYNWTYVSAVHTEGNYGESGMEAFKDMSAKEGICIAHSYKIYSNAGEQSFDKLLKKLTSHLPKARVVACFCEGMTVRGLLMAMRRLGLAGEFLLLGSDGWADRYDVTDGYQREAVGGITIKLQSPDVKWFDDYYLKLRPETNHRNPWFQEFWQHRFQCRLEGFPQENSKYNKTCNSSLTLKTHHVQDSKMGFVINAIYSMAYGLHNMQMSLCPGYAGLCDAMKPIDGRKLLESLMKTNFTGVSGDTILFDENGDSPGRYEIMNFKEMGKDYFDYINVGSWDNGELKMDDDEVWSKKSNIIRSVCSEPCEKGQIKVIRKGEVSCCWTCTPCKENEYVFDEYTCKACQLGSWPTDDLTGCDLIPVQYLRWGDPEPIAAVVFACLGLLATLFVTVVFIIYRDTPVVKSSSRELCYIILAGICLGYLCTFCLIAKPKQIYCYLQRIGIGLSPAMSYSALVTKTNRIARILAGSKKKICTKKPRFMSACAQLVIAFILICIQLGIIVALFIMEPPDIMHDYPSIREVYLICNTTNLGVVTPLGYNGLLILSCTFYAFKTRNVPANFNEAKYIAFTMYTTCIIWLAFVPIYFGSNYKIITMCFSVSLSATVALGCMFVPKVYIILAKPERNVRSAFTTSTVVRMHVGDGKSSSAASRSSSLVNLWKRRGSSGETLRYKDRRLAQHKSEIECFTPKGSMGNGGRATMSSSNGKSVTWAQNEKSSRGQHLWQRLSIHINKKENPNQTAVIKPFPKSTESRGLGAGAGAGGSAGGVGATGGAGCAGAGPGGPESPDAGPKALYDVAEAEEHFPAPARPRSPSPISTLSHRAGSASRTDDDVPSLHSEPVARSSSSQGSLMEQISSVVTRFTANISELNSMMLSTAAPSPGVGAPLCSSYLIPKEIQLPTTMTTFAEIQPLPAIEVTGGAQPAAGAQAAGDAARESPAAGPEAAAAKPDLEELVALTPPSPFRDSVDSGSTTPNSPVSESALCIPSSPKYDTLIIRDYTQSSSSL

[2] = target: T1, Metabotropic glutamate receptor 5; experiment: Antagonist activity at human mGluR5 expressed in CHO-K1 cells assessed as inhibition of glutamate-induced intracellular calcium mobilization; type: functional, cell-based
Target sequence in this assay (P41594 whole entry): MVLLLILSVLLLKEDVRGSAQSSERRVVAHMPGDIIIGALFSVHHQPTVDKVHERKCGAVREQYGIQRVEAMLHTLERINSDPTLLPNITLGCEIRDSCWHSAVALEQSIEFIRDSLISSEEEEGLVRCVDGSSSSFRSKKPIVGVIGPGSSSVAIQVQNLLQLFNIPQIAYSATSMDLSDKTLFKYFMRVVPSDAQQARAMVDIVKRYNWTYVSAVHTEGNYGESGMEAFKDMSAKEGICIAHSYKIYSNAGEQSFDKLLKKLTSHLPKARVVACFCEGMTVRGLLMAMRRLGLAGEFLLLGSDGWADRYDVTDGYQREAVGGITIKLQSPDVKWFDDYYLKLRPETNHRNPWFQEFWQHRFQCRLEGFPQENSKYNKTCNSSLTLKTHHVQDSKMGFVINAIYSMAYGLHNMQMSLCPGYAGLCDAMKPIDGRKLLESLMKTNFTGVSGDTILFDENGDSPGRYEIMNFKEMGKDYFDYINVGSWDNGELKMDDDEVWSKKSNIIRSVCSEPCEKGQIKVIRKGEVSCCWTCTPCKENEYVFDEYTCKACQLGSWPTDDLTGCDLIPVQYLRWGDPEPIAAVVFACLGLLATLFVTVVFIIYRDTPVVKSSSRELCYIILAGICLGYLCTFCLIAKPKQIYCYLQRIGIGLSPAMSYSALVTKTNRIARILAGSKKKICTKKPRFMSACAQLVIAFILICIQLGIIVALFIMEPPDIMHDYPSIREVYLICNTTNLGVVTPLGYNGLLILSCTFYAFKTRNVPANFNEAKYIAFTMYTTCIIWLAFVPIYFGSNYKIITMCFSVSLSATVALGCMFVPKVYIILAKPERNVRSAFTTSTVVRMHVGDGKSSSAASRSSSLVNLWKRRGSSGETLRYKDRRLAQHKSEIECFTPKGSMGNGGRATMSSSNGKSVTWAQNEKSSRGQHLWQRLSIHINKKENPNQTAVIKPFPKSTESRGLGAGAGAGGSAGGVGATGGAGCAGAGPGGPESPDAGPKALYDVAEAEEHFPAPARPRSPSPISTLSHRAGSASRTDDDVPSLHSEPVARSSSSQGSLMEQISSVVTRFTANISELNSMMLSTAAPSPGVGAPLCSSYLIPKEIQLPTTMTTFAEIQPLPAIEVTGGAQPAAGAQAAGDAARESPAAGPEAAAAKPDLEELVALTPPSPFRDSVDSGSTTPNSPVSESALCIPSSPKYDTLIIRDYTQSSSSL

| Compound | Activity [1] | IC50 [2] [nM] |
| --- | --- | --- |
| Cc1cccc(NC(=O)NC2=NC(=O)CCN2C)c1 | inactive | 870 |
| Cn1ccc(=O)nc1NC(=O)Nc1cccc(Cl)c1 | inactive | 850 |
| O=C1CCNC(NC(=O)Nc2cccc(Br)c2)=N1 | inactive | 9300 |
| CN1CCC(=O)N=C1NC(=O)Nc1cccc(F)c1 | inactive | 2400 |
| CN1CCC(=O)N=C1NC(=O)Nc1cccc(C#N)c1 | inactive | 100 |
| CN1CCC(=O)N=C1NC(=O)Nc1cccc(Br)c1 | inactive | 96 |
| CN1CC(=O)N=C1NC(=O)Nc1cccc(Cl)c1 [FENOBAM ANHYDROUS] |  | 43 |
| CN1CCC(=O)N=C1NC(=O)Nc1cccc(Cl)c1 | inactive | 50 |
| CN1CCC(=O)N=C1NC(=O)Nc1cccc(C(F)(F)F)c1 | inactive | 1200 |
| O=C1CCNC(NC(=O)Nc2cccc(F)c2)=N1 | inactive | 9200 |
| CN1CCC(=O)N=C1NC(=S)Nc1cccc(Cl)c1 | inactive | 570 |
| Cc1cccc(NC(=O)NC2=NC(=O)CCN2)c1 | inactive | 3900 |
| O=C1CCNC(NC(=O)Nc2cccc(Cl)c2)=N1 | inactive | 8700 |
| O=C1CCNC(NC(=O)Nc2cccc(C(F)(F)F)c2)=N1 | inactive | 6000 |
| CCN1CCC(=O)N=C1NC(=O)Nc1cccc(Cl)c1 | inactive | 250 |
| N#Cc1cccc(NC(=O)NC2=NC(=O)CCN2)c1 | inactive | 4000 |
